Data from PubChem BioAssay (NCI).
Several values for one entry are separate records, joined by “and”; a condition that tells them apart may be missing. Identical values can stand only once.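 The compound was tested at five concentrations on cells cultured in 96-well plates, with a 48-hour exposure period. Abbreviation: GI50, concentration required for 50% inhibition of growth. TGI: total growth inhibition.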

Key:
Test in all cases: NCI tumour cell line growth inhibition, 48 h
DMS 114 small cell lung = test system: DMS 114 small cell lung
HCC-2998 colon = test system: HCC-2998 colon
HCT-15 colon = test system: HCT-15 colon
HOP-18 NSCLC = test system: HOP-18 NSCLC
K-562 leukemia = test system: K-562 leukemia
M19-MEL melanoma = test system: M19-MEL melanoma
RXF 393 renal = test system: RXF 393 renal
SNB-78 CNS = test system: SNB-78 CNS
NCI/ADR-RES ovarian = test system: NCI/ADR-RES ovarian
PC-3 prostate = test system: PC-3 prostate

## CC1=C(C)C(=O)c2c(cc3ccc4ccccc4n23)C1=O
DMS 114 small cell lung
  TGI: > 100 µM
HCC-2998 colon
  TGI: > 100 µM
HCT-15 colon
  TGI: > 100 µM
HOP-18 NSCLC
  TGI: > 100 µM
K-562 leukemia
  TGI: > 100 µM
M19-MEL melanoma
  TGI: > 100 µM
RXF 393 renal
  TGI: > 100 µM
SNB-78 CNS
  TGI: > 100 µM

## Cn1c(=O)nc2n(-c3ccc(Cl)cc3)c3ccc(Cl)cc3nc-2c1=O
HCC-2998 colon
  TGI: 40.6 µM
HCT-15 colon
  TGI: 26.5 µM
K-562 leukemia
  TGI: 37.4 µM
RXF 393 renal
  TGI: 7.93 µM
SNB-78 CNS
  TGI: 29.6 µM

## Nn1c(-c2ccccc2)nc2ccc(Br)cc2c1=O
DMS 114 small cell lung
  TGI: > 100 µM
HCC-2998 colon
  TGI: > 100 µM
HCT-15 colon
  TGI: > 100 µM
HOP-18 NSCLC
  TGI: > 100 µM
K-562 leukemia
  TGI: > 100 µM
M19-MEL melanoma
  TGI: > 100 µM
SNB-78 CNS
  TGI: > 100 µM

## Cc1cc2c(c(C#N)c1C)NC(=O)CCC2=O
DMS 114 small cell lung
  TGI: > 100 µM
HCC-2998 colon
  TGI: > 100 µM
HCT-15 colon
  TGI: > 100 µM
K-562 leukemia
  TGI: > 100 µM
M19-MEL melanoma
  TGI: > 100 µM
RXF 393 renal
  TGI: > 100 µM
SNB-78 CNS
  TGI: > 100 µM

## CN1CCN(CN2C(=O)C3C4C=CC(C3C2=O)C2C3C(=O)N(CN5CCN(C)CC5)C(=O)C3C42)CC1 (configuration not stated)
DMS 114 small cell lung
  TGI: 36.8 µM and 37.7 µM and 35.5 µM
HCC-2998 colon
  TGI: 89.2 µM and 51.5 µM and 79 µM
HCT-15 colon
  TGI: 34.8 µM and 42.1 µM and 30.3 µM
HOP-18 NSCLC
  GI50: 34.4 µM and 13 µM and 48.6 µM
  TGI: 71 µM and 34.4 µM and > 100 µM
K-562 leukemia
  TGI: 81.4 µM and 55.6 µM and 58.2 µM
NCI/ADR-RES ovarian
  TGI: 64.5 µM
PC-3 prostate
  TGI: 97.9 µM
RXF 393 renal
  TGI: 41.4 µM and 34.7 µM and 36.2 µM

## O=C1CC(O)C=C1Nc1ccc(Cl)cc1 (configuration not stated)
DMS 114 small cell lung
  TGI: > 100 µM
HCC-2998 colon
  TGI: 44.5 µM
HOP-18 NSCLC
  TGI: > 100 µM
K-562 leukemia
  TGI: > 100 µM
M19-MEL melanoma
  TGI: > 100 µM
RXF 393 renal
  TGI: > 100 µM
SNB-78 CNS
  TGI: > 100 µM

## Cc1nc2c(nc1C)C(=O)c1cc(O)ccc1C2=O
DMS 114 small cell lung
  TGI: > 90.6 µM
HCC-2998 colon
  TGI: > 100 µM
HCT-15 colon
  TGI: > 67.3 µM
HOP-18 NSCLC
  TGI: > 100 µM
K-562 leukemia
  TGI: > 100 µM
M19-MEL melanoma
  TGI: 22.3 µM
RXF 393 renal
  TGI: > 100 µM
SNB-78 CNS
  TGI: > 100 µM

## CCOc1ccccc1NC(=O)C(=O)CC(=O)c1c(C)n([O-])c2ccccc2[n+]1=O
DMS 114 small cell lung
  TGI: > 100 µM
HCC-2998 colon
  TGI: > 100 µM
HCT-15 colon
  TGI: > 100 µM
HOP-18 NSCLC
  TGI: > 100 µM
K-562 leukemia
  TGI: > 100 µM
M19-MEL melanoma
  TGI: > 100 µM
RXF 393 renal
  TGI: > 100 µM
SNB-78 CNS
  TGI: > 100 µM

## COc1cc([C@H]2c3cc4c(cc3O[C@@]3(O)COC(=O)[C@@H]23)OCO4)cc(OC)c1OC
DMS 114 small cell lung
  TGI: > 100 µM
HCC-2998 colon
  TGI: > 100 µM
HCT-15 colon
  TGI: > 100 µM
HOP-18 NSCLC
  TGI: > 100 µM
K-562 leukemia
  TGI: > 100 µM
M19-MEL melanoma
  TGI: > 100 µM
NCI/ADR-RES ovarian
  TGI: > 100 µM
PC-3 prostate
  TGI: > 100 µM
SNB-78 CNS
  TGI: > 100 µM

## COc1ccc2[nH]c3c(c2c1)CCN(C)CC3
HCC-2998 colon
  TGI: > 100 µM
HCT-15 colon
  TGI: > 100 µM
HOP-18 NSCLC
  TGI: > 100 µM
K-562 leukemia
  TGI: > 100 µM
M19-MEL melanoma
  TGI: > 100 µM
SNB-78 CNS
  TGI: > 100 µM

## COC(=O)C1CC2(CC3=C1CCCC3)OCCO2 (configuration not stated)
DMS 114 small cell lung
  TGI: > 100 µM
HCC-2998 colon
  TGI: > 100 µM
HCT-15 colon
  TGI: > 100 µM
K-562 leukemia
  TGI: > 100 µM
M19-MEL melanoma
  TGI: > 100 µM
RXF 393 renal
  TGI: > 100 µM
SNB-78 CNS
  TGI: > 100 µM

## N#CCC(=O)Nc1cccc(C(F)(F)F)c1
HCC-2998 colon
  TGI: > 100 µM
HCT-15 colon
  TGI: > 100 µM
HOP-18 NSCLC
  TGI: > 100 µM
M19-MEL melanoma
  TGI: > 100 µM
RXF 393 renal
  TGI: > 100 µM
SNB-78 CNS
  TGI: > 100 µM

## CC(=O)O/C=C(/C=C/OC(C)=O)C(C/C=C(\C)C#CC=C(C)C)OC(C)=O (configuration not stated)
DMS 114 small cell lung
  TGI: 38.5 µM
HCC-2998 colon
  TGI: > 100 µM
HCT-15 colon
  TGI: 50.3 µM
HOP-18 NSCLC
  TGI: > 100 µM
K-562 leukemia
  TGI: > 100 µM
M19-MEL melanoma
  TGI: 41.7 µM
SNB-78 CNS
  TGI: 72.2 µM

## Cc1cc(-c2ncc(CC(=O)Nc3ccc(-c4cnccn4)cn3)cc2C)ccn1
HCC-2998 colon
  GI50: > 100 µM
  TGI: > 100 µM
HCT-15 colon
  GI50: 38.4 µM
  TGI: > 100 µM
K-562 leukemia
  GI50: 22.2 µM
  TGI: > 100 µM
NCI/ADR-RES ovarian
  GI50: 17.6 µM
  TGI: > 100 µM
PC-3 prostate
  GI50: 28.2 µM
  TGI: > 100 µM
RXF 393 renal
  GI50: 42.2 µM
  TGI: > 100 µM

## CC(=O)C1CC(C)=CCC12C(=O)Nc1ccccc12 (configuration not stated)
DMS 114 small cell lung
  TGI: > 100 µM
HCC-2998 colon
  TGI: > 100 µM
HCT-15 colon
  TGI: > 100 µM
HOP-18 NSCLC
  TGI: > 100 µM
K-562 leukemia
  TGI: > 100 µM
RXF 393 renal
  TGI: 68.9 µM

## CC1=C(C(=O)Nc2c(C)cccc2C)C(c2ccc3c(c2)OCO3)C(C(=O)Nc2c(C)cccc2C)=C(C)N1
DMS 114 small cell lung
  TGI: 38.1 µM
HCC-2998 colon
  TGI: 32.3 µM
HOP-18 NSCLC
  TGI: 48.2 µM
K-562 leukemia
  TGI: 73 µM
RXF 393 renal
  TGI: 33.9 µM
SNB-78 CNS
  TGI: 78.8 µM

## CNC(P(=O)([O-])[O-])P(=O)([O-])[O-].N.N.[Pt+2]
HCC-2998 colon
  GI50: > 100 µM
  TGI: > 100 µM
HCT-15 colon
  GI50: > 100 µM
  TGI: > 100 µM
HOP-18 NSCLC
  GI50: > 100 µM
  TGI: > 100 µM
RXF 393 renal
  GI50: > 100 µM
  TGI: > 100 µM
SNB-78 CNS
  GI50: > 100 µM
  TGI: > 100 µM

## CCOC(=O)c1ccc(NC(=O)N2CC(C)OC(C)C2)cc1 (configuration not stated)
HCC-2998 colon
  GI50: > 100 µM
  TGI: > 100 µM
HCT-15 colon
  GI50: > 100 µM
  TGI: > 100 µM
K-562 leukemia
  GI50: > 100 µM
  TGI: > 100 µM
NCI/ADR-RES ovarian
  GI50: > 100 µM
  TGI: > 100 µM
PC-3 prostate
  GI50: > 100 µM
  TGI: > 100 µM
RXF 393 renal
  GI50: > 100 µM
  TGI: > 100 µM

## CCOc1cc2ncc(C#N)c(Nc3ccc(OCc4cccc(F)c4)c(Cl)c3)c2cc1NC(=O)CC1CCSS1 (configuration not stated)
HCC-2998 colon
  GI50: 0.484 µM
  TGI: 0.974 µM
HCT-15 colon
  GI50: 2.76 µM
  TGI: > 25 µM
K-562 leukemia
  GI50: 0.902 µM
  TGI: > 25 µM
NCI/ADR-RES ovarian
  GI50: > 25 µM
  TGI: > 25 µM
PC-3 prostate
  GI50: 0.801 µM
  TGI: 5.91 µM
RXF 393 renal
  GI50: 2.35 µM
  TGI: 15.8 µM
